Structures can show the parent of a compound that is named as a salt.
What was measured:
MCF-7 = experiment: In vitro cytotoxicity (alamarBlue); assay type: cell-based; conditions: Homo sapiens, MCF7; MCF-7, 48 h
Protocol: (§1) Doxorubicin hydrochloride (DOX) was used as the positive control. For the MCF-7 and MCF-7/ADR, the initial concentration of DOX used was 10 μg/mL and 100 μg/mL, respectively.

MCF-7/ADR = experiment: In vitro cytotoxicity (alamarBlue); assay type: cell-based, human
Protocol: as §1

MCF-7 cells [1] = experiment: Inhibition of cell migration (wound scratch assay); assay type: cell-based, human; conditions: 24 h at respective IC50
Protocol: MCF-7 cells (8×10^5/well) were seeded in 6-well plates and incubated overnight for cell adhesion. To create a scratch, a 200 μL pipet tip was used to scrape a straight line through the cell layer. The old media was removed and washed with PBS, and the cells observed under a microscope to acquire images of the original scratch. […] After that, the scratches were observed and imaged using a microscope (Leica, Germany).

MCF-7 cells [2] = experiment: Cellular morphology staining; assay type: cell-based, human; conditions: MCF-7, 24 h; PLL-Gua and Gua-NPs 25 μg/mL, DOX 5.8 μg/mL
Protocol: (§2) MCF-7 and MCF-7/ADR cells were seeded at a density of 1000 cells/well in 50 μL medium, in a 384-well plate (PerkinElmer View Plate-384 Black). […] Treatment was performed at final concentrations of 25 μg/mL for PLL-Gua and Gua-NPs (on PLL-Gua basis) and 5.8 μg/mL for DOX, with a final volume of 40 μL per well. […] Subsequently, mitochondria were stained with Mito Tracker Deep Red solution in medium, with a final concentration of 100 nM. […] To fix the cells, 20 μL of 16% formaldehyde in PBS were added to each well (final concentration: 4%) and incubated in the dark at room temperature for 20 min. The cells were washed two times with 70 μL of Hanks' balanced salt solution (HBSS). […] The cells were incubated in the dark at room temperature for 30 min. Then, the cells were washed three times with 70 μL HBSS. The HBSS was not aspirated after the final washing step. The plates were sealed and centrifuged for 1 min at 500 rpm. The plate was then imaged using an Opera Phenix high content screening microscope (PerkinElmer) in 4 channels (Ex405/Em456; Ex488/Em522; Ex561/Em599; Ex640/Em706) with 9 sites per well and 63× magnification (binning 2).

MCF-7/ADR cells = experiment: Cellular morphology staining; assay type: cell-based, human; conditions: 24 h, PLL-Gua and Gua-NPs 25 μg/mL, DOX 5.8 μg/mL
Protocol: as §2

SMILES: COc1cccc2c1C(=O)c1c(O)c3c(c(O)c1C2=O)C[C@@](O)(C(=O)CO)C[C@@H]3O[C@H]1C[C@H](N)[C@H](O)[C@H](C)O1 [DOX, Doxorubicin hydrochloride]
- IC50 (MCF-7): 0.13 µg/mL
- difference of IC50 value, MCF-7/ADR vs MCF-7 (MCF-7/ADR): 769 fold
- MCF-7 cell migration (MCF-7 cells [1]): reduced wound gap
- cellular morphology (MCF-7 cells [2]): drastic decrease in the staining of DNA and RNA
- cellular morphology (MCF-7/ADR cells): did not induce such changes

From patent publication US20240327469A1, “FUNCTIONALISED POLYPEPTIDES, NANOPARTICLES AND USES THEREOF” (priority 2021, published 2024)
